Measured values: patent US10266560B2, “Bile acid analogs as FXR/TGR5 agonists and methods of use thereof” (Enanta Pharmaceuticals, Inc., priority 2014, dated 2019)
Like-named read-outs stand apart in the source and are kept apart here.

Biological target: Human FXR (NR1H4) (Homo sapiens (Human), UniProt Q96RI1)
Experiment: Human FXR (NR1H4) Assay (Gal4 promoter driven luciferase reporter transactivation in CHO cells)
Type: cell-based
Text: Assays Human FXR (NR1H4) Assay
Determination of a ligand mediated Gal4 promoter driven transactivation to quantify ligand binding mediated activation of FXR. FXR Reporter Assay kit purchased from Indigo Bioscience (Catalogue number: IB00601) to determine the potency and efficacy of compound developed by Enanta that can induce FXR activation. The principle application of this reporter assay system is to quantify functional activity of human FXR. The assay utilizes non-human mammalian cells, CHO (Chinese hamster ovary) cells engineered to express human NR1H4 protein (referred to as FXR). Reporter cells also incorporate the cDNA encoding beetle luciferase which catalyzes the substrates and yields photon emission. Luminescence intensity of the reaction is quantified using a plate-reading luminometer, Envision. Reporter Cells include the luciferase reporter gene functionally linked to an FXR responsive promoter. Thus, quantifying changes in luciferase expression in the treated reporter cells provides a sensitive surrogate measure of the changes in FXR activity. […] The assay is according to the manufacturer's instructions. In brief, the assay was performed in white, 96 well plates using final volume of 200 ul containing cells with different doses of compounds. Retrieve Reporter Cells from −80° C. storage. Perform a rapid thaw of the frozen cells by transferring a 10 ml volume of 37° C. cell recovery medium into the tube of frozen cells. Recap the tube of Reporter Cells and immediately place it in a 37° C. water bath for 5-10 minutes. Retrieve the tube of Reporter Cell Suspension from the water bath. Sanitize the outside surface of the tube with a 70% alcohol swab, and then transfer it into the cell culture hood. Dispense 100 μl of cell suspension into each well of the 96-well Assay Plate. Transfer the plate into 37° C. incubator, allowing the cells adherent to the bottom of the well. Dilute compounds in Dilution Plate (DP), and administrate to cells at Assay Plate (AP). DMSO content of the samples was kept at 0.2%. Cells were incubated for additional 22 hours before luciferase activities were measured. Thirty minutes before intending to quantify FXR activity, remove Detection Substrate and Detection Buffer from the refrigerator and place them in a low-light area so that they may equilibrate to room temperature. Remove the plate's lid and discard all media contents by ejecting it into an appropriate waste container. Gently tap the inverted plate onto a clean absorbent paper towel to remove residual droplets. Cells will remain tightly adhered to well bottoms. Add 100 μl of luciferase detection reagent to each well of the assay plate. Allow the assay plate to rest at room temperature for at least 5 minutes following the addition of LDR. Set the instrument (Envision) to perform a single 5 second “plate shake” prior to reading the first assay well. Read time may be 0.5 second (500 mSec) per well.

[1] = FXR agonistic potency range; CHO reporter cells expressing human NR1H4, 22 hours incubation; read-out: EC50
[2] = efficacy normalized to chenodeoxycholic acid (CDCA) set as 100%

Sequence of Human FXR (NR1H4) (Q96RI1 whole entry, the tested form may be a part): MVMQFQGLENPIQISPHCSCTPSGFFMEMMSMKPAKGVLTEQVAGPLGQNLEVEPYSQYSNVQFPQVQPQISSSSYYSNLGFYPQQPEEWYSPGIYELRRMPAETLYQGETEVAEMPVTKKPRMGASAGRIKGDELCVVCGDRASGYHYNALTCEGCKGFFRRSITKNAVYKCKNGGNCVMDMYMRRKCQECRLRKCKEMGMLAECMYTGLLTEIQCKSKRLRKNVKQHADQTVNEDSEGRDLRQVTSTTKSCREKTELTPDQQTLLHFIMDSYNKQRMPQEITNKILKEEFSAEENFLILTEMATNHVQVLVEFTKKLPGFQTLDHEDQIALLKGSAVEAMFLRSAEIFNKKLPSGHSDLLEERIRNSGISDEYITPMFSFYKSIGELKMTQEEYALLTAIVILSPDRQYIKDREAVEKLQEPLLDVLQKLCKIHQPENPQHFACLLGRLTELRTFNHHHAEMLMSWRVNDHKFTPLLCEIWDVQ

EC50 [1] | Efficacy (%) [2] | Compound | Emax (CHO; read-out: Efficacy (%)) | EC50 (read-out: EC50) | other results
 |  | CC[C@H]1[C@@H](O)[C@@H]2[C@H](CC[C@]3(C)[C@@H]([C@H](C)CCC(=O)NS(C)(=O)=O)CC[C@@H]23)[C@@]2(C)CC[C@@H](O)C[C@@H]12 [Example 1] | 254% | 100 to 1000 nM | 
100 to 1000 nM | 258% | CCC1C(O)C2C3CCC(C(C)CCC(=O)NS(=O)(=O)CC)C3(C)CCC2C2(C)CCC(O)CC12 (stereo not drawn) [Example 2] |  |  | 
100 to 1000 nM | 289% | CCC1C(O)C2C3CCC(C(C)CCC(=O)NS(=O)(=O)C(C)C)C3(C)CCC2C2(C)CCC(O)CC12 (stereo not drawn) [Example 3] |  |  | 
< 100 nM | 218% | CCC1C(O)C2C3CCC(C(C)CCC(=O)NS(=O)(=O)C(C)(C)C)C3(C)CCC2C2(C)CCC(O)CC12 (stereo not drawn) [Example 5] |  |  | 
100 to 1000 nM | 295% | CCCS(=O)(=O)NC(=O)CCC(C)C1CCC2C3C(O)C(CC)C4CC(O)CCC4(C)C3CCC12C (stereo not drawn) [Example 6] |  |  | 
1000 to 10000 nM | 178% | CCC1C(O)C2C3CCC(C(C)CCC(=O)NS(=O)(=O)Cc4ccccc4)C3(C)CCC2C2(C)CCC(O)CC12 (stereo not drawn) [Example 7] |  |  | 
1000 to 10000 nM | 244% | CCC1C(O)C2C3CCC(C(C)CCC(=O)NS(=O)(=O)C(F)(F)F)C3(C)CCC2C2(C)CCC(O)CC12 (stereo not drawn) [Example 10] |  |  | 
100 to 1000 nM | 315% | CCC1C(O)C2C3CCC(C(C)CCC(=O)NS(=O)(=O)C4CC4)C3(C)CCC2C2(C)CCC(O)CC12 (stereo not drawn) [Example 11] |  |  | 
100 to 1000 nM | 331% | CCC1C(O)C2C3CCC(C(C)CCC(=O)NS(=O)(=O)C4(C)CC4)C3(C)CCC2C2(C)CCC(O)CC12 (stereo not drawn) [Example 12] |  |  | 
1000 to 10000 nM | 219% | CCC1C(O)C2C3CCC(C(C)CCC(=O)NS(=O)(=O)N4CCOCC4)C3(C)CCC2C2(C)CCC(O)CC12 (stereo not drawn) [Example 16] |  |  | 
1000 to 10000 nM | 349% | CCC1C(O)C2C3CCC(C(C)CCC(=O)NS(N)(=O)=O)C3(C)CCC2C2(C)CCC(O)CC12 (stereo not drawn) [Example 17] |  |  | 
< 100 nM | 329% | CC[C@H]1[C@@H](O)[C@@H]2[C@H](CC[C@]3(C)[C@@H]([C@H](C)CCC(=O)NS(=O)(=O)c4ccccc4)CC[C@@H]23)[C@@]2(C)CC[C@@H](O)C[C@@H]12 [Example 18] |  |  | 
100 to 1000 nM | 176% | CCC1C(O)C2C3CCC(C(C)CCC(=O)NS(=O)(=O)c4ccccc4N)C3(C)CCC2C2(C)CCC(O)CC12 (stereo not drawn) [Example 19] |  |  | 
100 to 1000 nM | 348% | CCC1C(O)C2C3CCC(C(C)CCC(=O)NS(=O)(=O)c4ccccc4C)C3(C)CCC2C2(C)CCC(O)CC12 (stereo not drawn) [Example 20] |  |  | 
100 to 1000 nM | 259% | CCC1C(O)C2C3CCC(C(C)CCC(=O)NS(=O)(=O)c4ccccc4F)C3(C)CCC2C2(C)CCC(O)CC12 (stereo not drawn) [Example 22] |  |  | 
100 to 1000 nM | 280% | CCC1C(O)C2C3CCC(C(C)CCC(=O)NS(=O)(=O)c4ccccc4[N+](=O)[O-])C3(C)CCC2C2(C)CCC(O)CC12 (stereo not drawn) [Example 23] |  |  | 
< 100 nM | 271% | CCC1C(O)C2C3CCC(C(C)CCC(=O)NS(=O)(=O)c4ccc(C)cc4)C3(C)CCC2C2(C)CCC(O)CC12 (stereo not drawn) [Example 24] |  |  | 
1000 to 10000 nM | 347% | CCC1C(O)C2C3CCC(C(C)CCC(=O)NS(=O)(=O)F)C3(C)CCC2C2(C)CCC(O)CC12 (stereo not drawn) [Example 25] |  |  | 
 |  | CC[C@@H]1C2C[C@H](O)CCC2(C)[C@H]2CCC3(C)C([C@H](C)CCC(=O)NS(=O)(=O)c4ccccc4Cl)CC[C@H]3[C@@H]2[C@@H]1O (stereo partly drawn) [Example 451] | 274% | 100 to 1000 nM | 
 |  | CC[C@@H]1C2C[C@H](O)CCC2(C)[C@H]2CCC3(C)C([C@H](C)CCC(=O)NS(=O)(=O)c4cccc([N+](=O)[O-])c4)CC[C@H]3[C@@H]2[C@@H]1O (stereo partly drawn) [Example 452] |  |  | EC50: 1000 to 10000 nM; Emax (CHO, read-out: Efficacy (%)): 292%
 |  | CC[C@@H]1C2C[C@H](O)CCC2(C)[C@H]2CCC3(C)C([C@H](C)CCC(=O)NS(=O)(=O)c4ccc(F)cc4)CC[C@H]3[C@@H]2[C@@H]1O (stereo partly drawn) [Example 453] | 240% | 100 to 1000 nM | 
 |  | CC[C@@H]1C2C[C@H](O)CCC2(C)[C@H]2CCC3(C)C([C@H](C)CCC(=O)NS(=O)(=O)c4ccc([N+](=O)[O-])cc4)CC[C@H]3[C@@H]2[C@@H]1O (stereo partly drawn) [Example 454] | 353% | 100 to 1000 nM | 
 |  | CC[C@@H]1C2C[C@H](O)CCC2(C)[C@H]2CCC3(C)C([C@H](C)CCC(=O)NS(=O)(=O)c4ccccc4C(F)(F)F)CC[C@H]3[C@@H]2[C@@H]1O (stereo partly drawn) [Example 459] | 310% | 100 to 1000 nM | 
 |  | CC[C@@H]1C2C[C@H](O)CCC2(C)[C@H]2CCC3(C)C([C@H](C)CCC(=O)NS(=O)(=O)c4ccc(C#N)cc4)CC[C@H]3[C@@H]2[C@@H]1O (stereo partly drawn) [Example 461] | 283% | 100 to 1000 nM | 
 |  | CC[C@@H]1C2C[C@H](O)CCC2(C)[C@H]2CCC3(C)C([C@H](C)CCC(=O)NS(=O)(=O)c4ccccn4)CC[C@H]3[C@@H]2[C@@H]1O (stereo partly drawn) [Example 462] | 297% | 100 to 1000 nM | 
 |  | CC[C@@H]1C2C[C@H](O)CCC2(C)[C@H]2CCC3(C)C([C@H](C)CCC(=O)NS(=O)(=O)c4ccncc4)CC[C@H]3[C@@H]2[C@@H]1O (stereo partly drawn) [Example 463] | 251% | 1000 to 10000 nM | 
 |  | CC[C@@H]1C2C[C@H](O)CCC2(C)[C@H]2CCC3(C)C([C@H](C)CCC(=O)NS(=O)(=O)c4cc(F)cc(F)c4)CC[C@H]3[C@@H]2[C@@H]1O (stereo partly drawn) [Example 464] | 293% | 100 to 1000 nM | 
 |  | CC[C@@H]1C2C[C@H](O)CCC2(C)[C@H]2CCC3(C)C([C@H](C)CCC(=O)NS(=O)(=O)c4cccnc4)CC[C@H]3[C@@H]2[C@@H]1O (stereo partly drawn) [Example 466] | 258% | 1000 to 10000 nM | 
 |  | CC[C@@H]1C2C[C@H](O)CCC2(C)[C@H]2CCC3(C)C([C@H](C)CCC(=O)NS(=O)(=O)c4cccs4)CC[C@H]3[C@@H]2[C@@H]1O (stereo partly drawn) [Example 467] | 315% | 100 to 1000 nM | 

Compound | EC50 [1] | Efficacy (%) [2] | Emax (CHO; read-out: Efficacy (%)) | EC50 (read-out: EC50) | other results
CCCCS(=O)(=O)NC(=O)CCC(C)C1CCC2C3C(O)C(CC)C4CC(O)CCC4(C)C3CCC12C (stereo not drawn) [Example 4] | 100 to 1000 nM | 376% |  |  | 
C=CCS(=O)(=O)NC(=O)CCC(C)C1CCC2C3C(O)C(CC)C4CC(O)CCC4(C)C3CCC12C (stereo not drawn) [Example 9] | 100 to 1000 nM | 248% |  |  | 
CC[C@@H]1C2C[C@H](O)CCC2(C)[C@H]2CCC3(C)C([C@H](C)CCC(=O)NS(=O)(=O)c4ccc(OC)cc4)CC[C@H]3[C@@H]2[C@@H]1O (stereo partly drawn) [Example 455] | < 100 nM |  |  |  | Emax (CHO, read-out: Efficacy (%)): 417%
CC[C@@H]1C2C[C@H](O)CCC2(C)[C@H]2CCC3(C)C([C@H](C)CCC(=O)NS(=O)(=O)c4cccc(F)c4)CC[C@H]3[C@@H]2[C@@H]1O (stereo partly drawn) [Example 456] | < 100 nM |  |  |  | Emax (CHO, read-out: Efficacy (%)): 415%
CC[C@@H]1C2C[C@H](O)CCC2(C)[C@H]2CCC3(C)C([C@H](C)CCC(=O)NS(=O)(=O)c4cccc(C)c4)CC[C@H]3[C@@H]2[C@@H]1O (stereo partly drawn) [Example 457] | < 100 nM |  |  |  | Emax (CHO, read-out: Efficacy (%)): 382%
CC[C@@H]1C2C[C@H](O)CCC2(C)[C@H]2CCC3(C)C([C@H](C)CCC(=O)NS(=O)(=O)c4cccc(C(F)(F)F)c4)CC[C@H]3[C@@H]2[C@@H]1O (stereo partly drawn) [Example 460] | < 100 nM |  |  |  | Emax (CHO, read-out: Efficacy (%)): 291%
CC[C@@H]1C2C[C@H](O)CCC2(C)[C@H]2CCC3(C)C([C@H](C)CCC(=O)NS(=O)(=O)c4ccc(C)c(F)c4)CC[C@H]3[C@@H]2[C@@H]1O (stereo partly drawn) [Example 465] | < 100 nM |  |  |  | Emax (CHO, read-out: Efficacy (%)): 303%
